Reference: PMC7366380, “Discovery of a Potent and Selective Covalent Inhibitor and Activity-Based Probe for the Deubiquitylating Enzyme UCHL1, with Antifibrotic Activity” (Journal of the American Chemical Society, 2020)
Values joined by “and” are separate entries in the source; they are usually repeats but may differ in a detail not shown here. Equal values may be shown once.

Assays:
Experiment in all cases: In-cell proteome-wide competitive ABPP, HEK293: other DUBs and proteins
[1] = target: DUBs and other proteins in HEK293 cells (Homo sapiens, UniProt Q96BN8); details: replicates A-C; for Log2 reporter intensity values: OTULIN: competition with ABP 2, DMSO substract (FC); for Log2 reporter intensity values: OTULIN, DMSO subtracted
[2] = target: DUBs and other proteins in HEK293 cells (Homo sapiens, UniProt Q14694); details: replicates A-C; for Log2 reporter intensity values: USP10: competition with ABP 2, DMSO substract (FC); for Log2 reporter intensity values: USP10, DMSO subtracted
[3] = target: DUBs and other proteins in HEK293 cells (Homo sapiens, UniProt O00303); details: for Log2 reporter intensity values, EIF3F: TMT replicates; for Log2 reporter intensity values / Log2 reporter intensity values: EIF3F: replicates A-C; for Log2 reporter intensity values: EIF3F: competition with ABP 2, DMSO substract (FC)
[4] = target: T1, DUBs and other proteins in HEK293 cells (Homo sapiens, UniProt Q9Y5K5); details: replicates A-C; for Log2 reporter intensity values: UCHL5: competition with ABP 2, DMSO substract (FC); for Log2 reporter intensity values: UCHL5, DMSO subtracted
T1 sequence (Q9Y5K5 1-329): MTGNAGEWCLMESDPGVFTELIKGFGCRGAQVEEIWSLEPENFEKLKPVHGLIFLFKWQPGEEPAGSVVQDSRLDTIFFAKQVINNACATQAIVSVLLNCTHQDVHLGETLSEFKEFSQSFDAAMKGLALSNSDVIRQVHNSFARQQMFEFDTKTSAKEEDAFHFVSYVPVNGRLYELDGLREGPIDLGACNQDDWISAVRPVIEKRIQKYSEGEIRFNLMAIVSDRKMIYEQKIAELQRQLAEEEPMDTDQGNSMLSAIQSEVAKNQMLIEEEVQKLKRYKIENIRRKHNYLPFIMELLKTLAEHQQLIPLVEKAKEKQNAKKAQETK

[5] = target: T2, DUBs and other proteins in HEK293 cells (Homo sapiens, UniProt Q96K76); details: replicates A-C; for Log2 reporter intensity values: USP47: competition with ABP 2, DMSO substract (FC); for Log2 reporter intensity values: USP47, DMSO subtracted
T2 sequence (Q96K76 1-1375): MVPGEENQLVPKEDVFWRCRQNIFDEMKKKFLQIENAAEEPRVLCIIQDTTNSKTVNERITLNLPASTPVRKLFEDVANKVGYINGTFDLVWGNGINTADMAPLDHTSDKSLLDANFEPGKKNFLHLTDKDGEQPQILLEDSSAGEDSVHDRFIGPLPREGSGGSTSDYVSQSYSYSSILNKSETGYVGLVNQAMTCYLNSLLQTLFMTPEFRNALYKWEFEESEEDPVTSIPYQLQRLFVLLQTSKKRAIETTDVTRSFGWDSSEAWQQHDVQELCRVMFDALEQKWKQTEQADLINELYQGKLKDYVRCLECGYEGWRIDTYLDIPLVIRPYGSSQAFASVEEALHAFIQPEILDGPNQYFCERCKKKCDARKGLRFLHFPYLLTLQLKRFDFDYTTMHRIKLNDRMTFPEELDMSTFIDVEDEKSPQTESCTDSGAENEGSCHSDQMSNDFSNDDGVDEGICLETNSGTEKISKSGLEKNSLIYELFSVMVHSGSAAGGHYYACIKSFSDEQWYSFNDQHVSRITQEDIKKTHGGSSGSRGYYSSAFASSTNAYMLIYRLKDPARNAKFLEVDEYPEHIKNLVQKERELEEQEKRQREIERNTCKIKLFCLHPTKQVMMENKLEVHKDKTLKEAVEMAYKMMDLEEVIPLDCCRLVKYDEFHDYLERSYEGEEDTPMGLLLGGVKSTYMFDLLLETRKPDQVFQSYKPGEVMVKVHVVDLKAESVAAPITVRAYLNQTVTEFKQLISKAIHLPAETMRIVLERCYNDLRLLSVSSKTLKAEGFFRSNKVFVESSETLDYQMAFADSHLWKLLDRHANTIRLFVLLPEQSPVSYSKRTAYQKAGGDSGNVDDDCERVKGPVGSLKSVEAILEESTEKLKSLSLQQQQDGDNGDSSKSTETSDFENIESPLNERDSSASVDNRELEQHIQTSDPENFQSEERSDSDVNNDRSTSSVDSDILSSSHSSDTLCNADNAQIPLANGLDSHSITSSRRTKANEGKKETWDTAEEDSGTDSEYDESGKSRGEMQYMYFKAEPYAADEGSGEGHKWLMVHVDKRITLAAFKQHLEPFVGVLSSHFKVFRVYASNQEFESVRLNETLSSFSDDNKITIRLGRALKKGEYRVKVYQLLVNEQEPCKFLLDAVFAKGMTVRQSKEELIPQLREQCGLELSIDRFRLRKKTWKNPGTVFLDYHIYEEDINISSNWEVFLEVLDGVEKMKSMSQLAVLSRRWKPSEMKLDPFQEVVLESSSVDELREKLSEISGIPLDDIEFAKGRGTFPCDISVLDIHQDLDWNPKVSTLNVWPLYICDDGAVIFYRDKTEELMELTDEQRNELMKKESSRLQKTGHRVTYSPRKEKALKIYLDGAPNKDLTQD

DUBs and other proteins in HEK293 cells (Homo sapiens, UniProt O00303), sequence (O00303 whole entry): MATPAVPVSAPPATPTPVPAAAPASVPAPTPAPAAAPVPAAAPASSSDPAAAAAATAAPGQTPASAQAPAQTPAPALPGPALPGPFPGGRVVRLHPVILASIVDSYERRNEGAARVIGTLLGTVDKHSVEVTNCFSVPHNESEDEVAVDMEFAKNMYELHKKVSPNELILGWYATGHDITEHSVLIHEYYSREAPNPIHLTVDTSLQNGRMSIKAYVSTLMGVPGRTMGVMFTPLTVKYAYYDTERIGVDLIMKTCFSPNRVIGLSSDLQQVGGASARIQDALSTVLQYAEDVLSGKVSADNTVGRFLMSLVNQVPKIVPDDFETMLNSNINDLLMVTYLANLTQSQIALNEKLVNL
DUBs and other proteins in HEK293 cells (Homo sapiens, UniProt Q96BN8), sequence (Q96BN8 whole entry): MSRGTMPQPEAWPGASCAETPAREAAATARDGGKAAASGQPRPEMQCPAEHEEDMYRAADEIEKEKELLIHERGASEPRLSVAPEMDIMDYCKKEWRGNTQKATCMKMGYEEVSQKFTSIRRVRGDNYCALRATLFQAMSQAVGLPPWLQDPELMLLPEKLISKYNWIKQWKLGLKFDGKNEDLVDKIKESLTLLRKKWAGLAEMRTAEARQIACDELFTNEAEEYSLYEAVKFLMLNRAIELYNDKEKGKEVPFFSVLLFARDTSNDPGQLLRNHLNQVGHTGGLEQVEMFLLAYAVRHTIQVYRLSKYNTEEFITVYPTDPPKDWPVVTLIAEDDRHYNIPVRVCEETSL
DUBs and other proteins in HEK293 cells (Homo sapiens, UniProt Q14694), sequence (Q14694 whole entry): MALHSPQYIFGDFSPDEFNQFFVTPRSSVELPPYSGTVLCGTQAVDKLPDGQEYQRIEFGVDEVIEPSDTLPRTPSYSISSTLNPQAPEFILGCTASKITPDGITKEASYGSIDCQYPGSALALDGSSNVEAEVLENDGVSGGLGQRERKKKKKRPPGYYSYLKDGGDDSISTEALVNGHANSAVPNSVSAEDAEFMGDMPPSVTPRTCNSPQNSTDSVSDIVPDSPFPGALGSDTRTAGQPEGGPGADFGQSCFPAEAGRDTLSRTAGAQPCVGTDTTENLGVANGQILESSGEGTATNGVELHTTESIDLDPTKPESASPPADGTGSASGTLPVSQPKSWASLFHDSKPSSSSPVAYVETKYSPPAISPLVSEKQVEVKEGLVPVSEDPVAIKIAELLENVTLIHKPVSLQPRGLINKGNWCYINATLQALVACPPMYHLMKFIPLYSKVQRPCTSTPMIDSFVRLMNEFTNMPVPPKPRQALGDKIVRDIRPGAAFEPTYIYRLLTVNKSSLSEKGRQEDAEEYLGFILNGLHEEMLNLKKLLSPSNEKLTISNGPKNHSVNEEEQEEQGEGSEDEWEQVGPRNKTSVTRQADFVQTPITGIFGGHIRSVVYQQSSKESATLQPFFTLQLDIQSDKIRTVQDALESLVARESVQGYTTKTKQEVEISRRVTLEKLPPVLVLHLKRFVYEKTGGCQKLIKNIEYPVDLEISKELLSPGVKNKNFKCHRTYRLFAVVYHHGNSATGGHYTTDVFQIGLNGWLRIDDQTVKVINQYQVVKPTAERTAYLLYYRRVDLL

Structure (SMILES): CC(=O)O/N=C1\C(=O)N(Cc2cc(Cl)ccc2Cl)c2ccc(Cl)cc21 [LDN]
- Log2 reporter intensity values: OTULIN ([1]; LDN at 5 μM): 0.9147 and 1.064 and 1.028
- Log2 reporter intensity values: OTULIN ([1]; LDN at 25 μM): 0.944 and 1.042 and 0.9874
- Log2 reporter intensity values ([1]; LDN at 5 μM): -0.1287 and 0.0891 and 0.03957
- Log2 reporter intensity values ([1]; LDN at 25 μM): -0.08321 and 0.05912 and -0.01826
- Log2 reporter intensity values ([1]; LDN_5 μM): -0.08587 and 0.06318 and 0.02728
- Log2 reporter intensity values ([1]; LDN_25 μM): -0.05657 and 0.0413 and -0.01311
- Log2 reporter intensity values: USP10 ([2]; LDN at 5 μM): 0.9581 and 0.8382 and 0.9082
- Log2 reporter intensity values: USP10 ([2]; LDN at 25 μM): 0.9726 and 0.903 and 0.8841
- Log2 reporter intensity values ([2]; LDN at 5 μM): -0.06168 and -0.2546 and -0.1389
- Log2 reporter intensity values ([2]; LDN at 25 μM): -0.04009 and -0.1472 and -0.1778
- Log2 reporter intensity values ([2]; LDN_5 μM): -0.04282 and -0.1627 and -0.09278
- Log2 reporter intensity values ([2]; LDN_25 μM): -0.02837 and -0.09796 and -0.1169
- Log2 reporter intensity values, EIF3F ([3]; 5 μM LDN-57444 (60 min) + 20 nM ABP 2 (10 min), All values): 0.1312 and 0.08738 and -0.0291
- Log2 reporter intensity values, EIF3F ([3]; 5 μM LDN-57444 (60 min) + 20 nM ABP 2 (10 min), DMSO subtracted): 0.1407 and 0.09693 and -0.01955
- Log2 reporter intensity values, EIF3F ([3]; 25 μM LDN-57444 (60 min) + 20 nM ABP 2 (10 min), All values): 0.03265 and -0.09761 and -0.112
- Log2 reporter intensity values, EIF3F ([3]; 25 μM LDN-57444 (60 min) + 20 nM ABP 2 (10 min), DMSO subtracted): 0.0422 and -0.08806 and -0.1024
- Log2 t-test Difference ([3]; EIF3F, LDN - 5 μM): -0.01801
- Log2 reporter intensity values ([3]; EIF3F, LDN at 5 μM, DMSO subtracted): 0.1407 and 0.09693 and -0.01955
- Log2 reporter intensity values ([3]; EIF3F, LDN at 25 μM, DMSO subtracted): 0.0422 and -0.08806 and -0.1024
- Log2 reporter intensity values ([3]; EIF3F, LDN_5 μM, DMSO subtracted): 0.102 and 0.06908 and -0.01388
- Log2 reporter intensity values ([3]; EIF3F, LDN_25 μM, DMSO subtracted): 0.02927 and -0.05963 and -0.06897
- Log2 reporter intensity values: EIF3F ([3]; LDN at 5 μM): 1.102 and 1.069 and 0.9865
- Log2 reporter intensity values: EIF3F ([3]; LDN at 25 μM): 1.03 and 0.9408 and 0.9315
- Log2 reporter intensity values: UCHL5 ([4]; LDN at 5 μM): 1.097 and 1.066 and 1.089
- Log2 reporter intensity values: UCHL5 ([4]; LDN at 25 μM): 0.9397 and 0.9601 and 0.908
- Log2 reporter intensity values ([4]; LDN at 5 μM): 0.134 and 0.09247 and 0.1227
- Log2 reporter intensity values ([4]; LDN at 25 μM): -0.08966 and -0.05875 and -0.1393
- Log2 reporter intensity values ([4]; LDN_5 μM): 0.09668 and 0.06552 and 0.08811
- Log2 reporter intensity values ([4]; LDN_25 μM): -0.06093 and -0.04058 and -0.09272
- Log2 reporter intensity values: USP47 ([5]; LDN at 5 μM): 0.9979 and 0.9926 and 1.029
- Log2 reporter intensity values: USP47 ([5]; LDN at 25 μM): 1.08 and 1.079 and 1.007
- Log2 reporter intensity values ([5]; LDN at 5 μM): -0.003055 and -0.01068 and 0.04147
- Log2 reporter intensity values ([5]; LDN at 25 μM): 0.1109 and 0.1092 and 0.01034
- Log2 reporter intensity values ([5]; LDN_5 μM): -0.002223 and -0.007484 and 0.02905
- Log2 reporter intensity values ([5]; LDN_25 μM): 0.07978 and 0.07849 and 0.007088
